According to PubChem BioAssay AID2060599 (Molecular Pharmacology Branch, DTP, NCI, 2025):

tested on: 817829-284-R-J1-PDC complex spheroids, viability; test: Anticancer human tumor 817829-284-R-J1-PDC patient-derived colon adenocarcinoma cell line growth inhibition [CLK]; details: second compound 10 µM; first compound 0.00316 µM; active compounds read low
In short: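 Multi-cell-type spheroids combined patient-derived tumor cells with HUVEC endothelial cells and human mesenchymal stem cells. Paired agents were dosed in half-log steps down from about clinical Cmax, or from 10 microM where Cmax was unknown.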
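Further: spheroids exposed to the agents for seven days before readout.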

SMILES | viability, T/C [%]
Cn1ncnc1[C@H]1c2n[nH]c(=O)c3cc(F)cc(c23)N[C@@H]1c1ccc(F)cc1 + CNC(=O)c1ccc(Nc2nc(OC3CCCC3)c3c(-c4ccc5nc(C)oc5c4)c[nH]c3n2)c(OC)c1 | 21.9

same assay, conditions: second compound 10 µM; first compound 0.01 µM; active compounds read low

SMILES | viability, T/C [%]
CCc1c2c(nc3ccc(O)cc13)-c1cc3c(c(=O)n1C2)COC(=O)[C@]3(O)CC + CNC(=O)c1ccc(Nc2nc(OC3CCCC3)c3c(-c4ccc5nc(C)oc5c4)c[nH]c3n2)c(OC)c1 | 8.01
Cn1ncnc1[C@H]1c2n[nH]c(=O)c3cc(F)cc(c23)N[C@@H]1c1ccc(F)cc1 + CNC(=O)c1ccc(Nc2nc(OC3CCCC3)c3c(-c4ccc5nc(C)oc5c4)c[nH]c3n2)c(OC)c1 | 18.4

same assay, conditions: second compound 10 µM; first compound 0.0316 µM; active compounds read low

SMILES | viability, T/C [%]
CCc1c2c(nc3ccc(O)cc13)-c1cc3c(c(=O)n1C2)COC(=O)[C@]3(O)CC + CNC(=O)c1ccc(Nc2nc(OC3CCCC3)c3c(-c4ccc5nc(C)oc5c4)c[nH]c3n2)c(OC)c1 | 7.69
Cn1ncnc1[C@H]1c2n[nH]c(=O)c3cc(F)cc(c23)N[C@@H]1c1ccc(F)cc1 + CNC(=O)c1ccc(Nc2nc(OC3CCCC3)c3c(-c4ccc5nc(C)oc5c4)c[nH]c3n2)c(OC)c1 | 16
Nc1ccn(C2OC(CO)C(O)C2(F)F)c(=O)n1 (configuration not stated) + CNC(=O)c1ccc(Nc2nc(OC3CCCC3)c3c(-c4ccc5nc(C)oc5c4)c[nH]c3n2)c(OC)c1 | 7.94
O=C(c1cc(Cc2n[nH]c(=O)c3ccccc23)ccc1F)N1CCN(C(=O)C2CC2)CC1 + CNC(=O)c1ccc(Nc2nc(OC3CCCC3)c3c(-c4ccc5nc(C)oc5c4)c[nH]c3n2)c(OC)c1 | 21.9
O=c1[nH]cc(F)c(=O)[nH]1 + CNC(=O)c1ccc(Nc2nc(OC3CCCC3)c3c(-c4ccc5nc(C)oc5c4)c[nH]c3n2)c(OC)c1 | 20.7

same assay, conditions: second compound 10 µM; first compound 0.1 µM; active compounds read low

SMILES | viability, T/C [%]
CCc1c2c(nc3ccc(O)cc13)-c1cc3c(c(=O)n1C2)COC(=O)[C@]3(O)CC + CNC(=O)c1ccc(Nc2nc(OC3CCCC3)c3c(-c4ccc5nc(C)oc5c4)c[nH]c3n2)c(OC)c1 | 4.85
Cn1ncnc1[C@H]1c2n[nH]c(=O)c3cc(F)cc(c23)N[C@@H]1c1ccc(F)cc1 + CNC(=O)c1ccc(Nc2nc(OC3CCCC3)c3c(-c4ccc5nc(C)oc5c4)c[nH]c3n2)c(OC)c1 | 18.1
Nc1ccn(C2OC(CO)C(O)C2(F)F)c(=O)n1 (configuration not stated) + CNC(=O)c1ccc(Nc2nc(OC3CCCC3)c3c(-c4ccc5nc(C)oc5c4)c[nH]c3n2)c(OC)c1 | 5.03
O=C(c1cc(Cc2n[nH]c(=O)c3ccccc23)ccc1F)N1CCN(C(=O)C2CC2)CC1 + CNC(=O)c1ccc(Nc2nc(OC3CCCC3)c3c(-c4ccc5nc(C)oc5c4)c[nH]c3n2)c(OC)c1 | 22.9
O=c1[nH]cc(F)c(=O)[nH]1 + CNC(=O)c1ccc(Nc2nc(OC3CCCC3)c3c(-c4ccc5nc(C)oc5c4)c[nH]c3n2)c(OC)c1 | 22.1

same assay, conditions: second compound 10 µM; first compound 0.316 µM; active compounds read low

SMILES | viability, T/C [%]
CCc1c2c(nc3ccc(O)cc13)-c1cc3c(c(=O)n1C2)COC(=O)[C@]3(O)CC + CNC(=O)c1ccc(Nc2nc(OC3CCCC3)c3c(-c4ccc5nc(C)oc5c4)c[nH]c3n2)c(OC)c1 | 4.44
Nc1ccn(C2OC(CO)C(O)C2(F)F)c(=O)n1 (configuration not stated) + CNC(=O)c1ccc(Nc2nc(OC3CCCC3)c3c(-c4ccc5nc(C)oc5c4)c[nH]c3n2)c(OC)c1 | 4.94
O=C(c1cc(Cc2n[nH]c(=O)c3ccccc23)ccc1F)N1CCN(C(=O)C2CC2)CC1 + CNC(=O)c1ccc(Nc2nc(OC3CCCC3)c3c(-c4ccc5nc(C)oc5c4)c[nH]c3n2)c(OC)c1 | 30.8
O=c1[nH]cc(F)c(=O)[nH]1 + CNC(=O)c1ccc(Nc2nc(OC3CCCC3)c3c(-c4ccc5nc(C)oc5c4)c[nH]c3n2)c(OC)c1 | 17.8

same assay, conditions: second compound 10 µM; first compound 1 µM; active compounds read low

SMILES | viability, T/C [%]
CCc1c2c(nc3ccc(O)cc13)-c1cc3c(c(=O)n1C2)COC(=O)[C@]3(O)CC + CNC(=O)c1ccc(Nc2nc(OC3CCCC3)c3c(-c4ccc5nc(C)oc5c4)c[nH]c3n2)c(OC)c1 | 2.57
Nc1ccn(C2OC(CO)C(O)C2(F)F)c(=O)n1 (configuration not stated) + CNC(=O)c1ccc(Nc2nc(OC3CCCC3)c3c(-c4ccc5nc(C)oc5c4)c[nH]c3n2)c(OC)c1 | 4.81
O=C(c1cc(Cc2n[nH]c(=O)c3ccccc23)ccc1F)N1CCN(C(=O)C2CC2)CC1 + CNC(=O)c1ccc(Nc2nc(OC3CCCC3)c3c(-c4ccc5nc(C)oc5c4)c[nH]c3n2)c(OC)c1 | 18.1
O=c1[nH]cc(F)c(=O)[nH]1 + CNC(=O)c1ccc(Nc2nc(OC3CCCC3)c3c(-c4ccc5nc(C)oc5c4)c[nH]c3n2)c(OC)c1 | 11.7

same assay, conditions: second compound 10 µM; first compound 3.16 µM; active compounds read low

SMILES | viability, T/C [%]
Nc1ccn(C2OC(CO)C(O)C2(F)F)c(=O)n1 (configuration not stated) + CNC(=O)c1ccc(Nc2nc(OC3CCCC3)c3c(-c4ccc5nc(C)oc5c4)c[nH]c3n2)c(OC)c1 | 4.26
O=C(c1cc(Cc2n[nH]c(=O)c3ccccc23)ccc1F)N1CCN(C(=O)C2CC2)CC1 + CNC(=O)c1ccc(Nc2nc(OC3CCCC3)c3c(-c4ccc5nc(C)oc5c4)c[nH]c3n2)c(OC)c1 | 15.8
O=c1[nH]cc(F)c(=O)[nH]1 + CNC(=O)c1ccc(Nc2nc(OC3CCCC3)c3c(-c4ccc5nc(C)oc5c4)c[nH]c3n2)c(OC)c1 | 7.79

same assay, conditions: second compound 10 µM; first compound 10 µM; active compounds read low

SMILES | viability, T/C [%]
Nc1ccn(C2OC(CO)C(O)C2(F)F)c(=O)n1 (configuration not stated) + CNC(=O)c1ccc(Nc2nc(OC3CCCC3)c3c(-c4ccc5nc(C)oc5c4)c[nH]c3n2)c(OC)c1 | 2.75
O=C(c1cc(Cc2n[nH]c(=O)c3ccccc23)ccc1F)N1CCN(C(=O)C2CC2)CC1 + CNC(=O)c1ccc(Nc2nc(OC3CCCC3)c3c(-c4ccc5nc(C)oc5c4)c[nH]c3n2)c(OC)c1 | 15.3
O=c1[nH]cc(F)c(=O)[nH]1 + CNC(=O)c1ccc(Nc2nc(OC3CCCC3)c3c(-c4ccc5nc(C)oc5c4)c[nH]c3n2)c(OC)c1 | 7.22
